For data set [1], the system named is Salmonella. To be noted: cited from earlier work.
Data set [2] concerns DNA from Salmonella TA100. Kind of data set: Abasic sites by aldehydic-site assay in DNA of treated TA100. To be noted: DMSO 5.9 ± 0.33. The format is cell-based.
In data set [3] the test system is Salmonella TA104. Kind of data set: Salmonella plate-incorporation mutagenicity assay, strain TA104, with S9 mix. The format is cell-based.
The subject of data set [4] is Salmonella TA100. Kind of data set: Salmonella plate-incorporation mutagenicity assay, strain TA100. The format is cell-based.
In data set [5] the test system is DNA from Salmonella TA100. The data set can be described thus: Stable DNA adducts by 32P-postlabeling in DNA of treated TA100. The format is cell-based. To be noted: DMSO 0.024 ± 0.000.
The subject of data set [6] is Salmonella TA98. The data set can be described thus: Salmonella plate-incorporation mutagenicity assay, strain TA98, with S9 mix. The format is cell-based.
The subject of data set [7] is strain TA100. The format is cell-based, Salmonella. To be noted: TA100 liquid-suspension; for Rev/10^6 survivors: DMSO 0.8; for Percent survival: DMSO 100.

Several values for one entry are separate records, joined by “and”; a condition that tells them apart may be missing. Equal entries are not always repeated. Where two headings read alike, the source gives them in different places.

`c1ccc2c(c1)ccc1cc3c(cc12)sc1ccccc13` [BPT, benzo[b]phenanthro[2,3-d]thiophene]: the “Mutagenicity in Salmonella” value in data set [1] is given as “mutagenic”.

Regarding `O=S1(=O)C=Cc2c1ccc1ccc3ccccc3c21` [P[3,4-b]T sulfone, Phenanthro[3,4-b]thiophene sulfone], the “Abasic sites/10^5 nucleotides ± S.E” value was determined as 18.4 ± 0.64 sites/10^5 nucleotides in data set [2] (TA100, 10 µg/ml) and 15.1 ± 0.43 sites/10^5 nucleotides in data set [2] (TA100, 20 µg/ml). Besides, the Rev/plate in data set [3] (TA104 +S9, Test 2, 2.5 µg/plate, zero-dose 276/260/270) is 1068/1015; in data set [3] (TA104 +S9, Test 2, 5 µg/plate, zero-dose 276/260/270), 1603/1565; in data set [3] (TA104 +S9, Test 2, 10 µg/plate, zero-dose 276/260/270) it was 1488/1583; in data set [3] (TA104 +S9, Test 2, 20 µg/plate, zero-dose 276/260/270), 706/778; in data set [3] (TA104 +S9, Test 3, 2.5 µg/plate, zero-dose 402/395/336), 1027/982; in data set [3] (TA104 +S9, Test 3, 5 µg/plate, zero-dose 402/395/336), 1650/1580. Moreover, the Rev/plate in data set [3] (TA104 +S9, Test 3, 10 µg/plate, zero-dose 402/395/336) is listed as 1652/1652; in data set [3] (TA104 +S9, Test 3, 20 µg/plate, zero-dose 402/395/336) it was 758/919; in data set [4] (TA100 +S9, Test 3, 0.1 µg/plate, zero-dose 127/118/125), 239/190; in data set [4] (TA100 +S9, Test 3, 0.25 µg/plate, zero-dose 127/118/125), 368/365; in data set [4] (TA100 +S9, Test 3, 0.5 µg/plate, zero-dose 127/118/125), 681/795; in data set [4] (TA100 +S9, Test 3, 1 µg/plate, zero-dose 127/118/125), 1332/1283. The Rev/plate is recorded as 2801/2710 in data set [4] (TA100 +S9, Test 3, 2.5 µg/plate, zero-dose 127/118/125); 3090/3170 in data set [4] (TA100 +S9, Test 3, 5 µg/plate, zero-dose 127/118/125); 197/195 in data set [4] (TA100 +S9, Test 4, 0.1 µg/plate, zero-dose 112/140/115); 284/297 in data set [4] (TA100 +S9, Test 4, 0.25 µg/plate, zero-dose 112/140/115); 453/514 in data set [4] (TA100 +S9, Test 4, 0.5 µg/plate, zero-dose 112/140/115); 380/383 in data set [4] (TA100 +S9, Test 4, 1 µg/plate, zero-dose 112/140/115). For the same compound, the Rev/plate in data set [4] (TA100 +S9, Test 4, 2.5 µg/plate, zero-dose 112/140/115) was 1885 rev/plate; in data set [4] (TA100 +S9, Test 5, 0.1 µg/plate, zero-dose 102/119/99), 194/197; in data set [4] (TA100 +S9, Test 5, 0.25 µg/plate, zero-dose 102/119/99), 255/245; in data set [4] (TA100 +S9, Test 5, 0.5 µg/plate, zero-dose 102/119/99), 504/448; in data set [4] (TA100 +S9, Test 5, 1 µg/plate, zero-dose 102/119/99), 1037/993; in data set [4] (TA100 +S9, Test 5, 2.5 µg/plate, zero-dose 102/119/99), 2935/2875. The Rev/plate in data set [6] (TA98 +S9, Test 1, 2 µg/plate, zero-dose 33/40/39) was determined as 328 rev/plate; in data set [6] (TA98 +S9, Test 1, 5 µg/plate, zero-dose 33/40/39), 982 rev/plate; in data set [6] (TA98 +S9, Test 1, 10 µg/plate, zero-dose 33/40/39), 1373 rev/plate; in data set [6] (TA98 +S9, Test 1, 20 µg/plate, zero-dose 33/40/39), 1324 rev/plate; in data set [6] (TA98 +S9, Test 1, 40 µg/plate, zero-dose 33/40/39), 1124 rev/plate; in data set [6] (TA98 +S9, Test 1, 80 µg/plate, zero-dose 33/40/39), 1268 rev/plate. Further, the Rev/plate in data set [6] (TA98 +S9, Test 2, 0.5 µg/plate, zero-dose 43/41/30) is reported as 41/57; in data set [6] (TA98 +S9, Test 2, 1 µg/plate, zero-dose 43/41/30), 63/67; in data set [6] (TA98 +S9, Test 2, 2.5 µg/plate, zero-dose 43/41/30), 263/237; in data set [6] (TA98 +S9, Test 2, 5 µg/plate, zero-dose 43/41/30), 765/708; in data set [6] (TA98 +S9, Test 3, 0.5 µg/plate, zero-dose 49/50/50), 56/52; in data set [6] (TA98 +S9, Test 3, 1 µg/plate, zero-dose 49/50/50), 124/86. Also, the Rev/plate is recorded as 293/366 in data set [6] (TA98 +S9, Test 3, 2.5 µg/plate, zero-dose 49/50/50) and 1078/922 in data set [6] (TA98 +S9, Test 3, 5 µg/plate, zero-dose 49/50/50). In addition, the “Mutagenic potency, Revertants/µg ± S.E., TA104” value in data set [3] (plate-incorporation, +S9) worked out at 262 ± 135 rev/µg. The “Mutagenicity call TA104” value in data set [3] (plate-incorporation, +S9) is “(+) (Called mutagenic (+) based on showing reproducible, dose-related increases in rev/plate that reached or exceeded 2-fold relative to zero-dose controls)”. In addition, the “Mutagenic potency, Revertants/µg ± S.E., TA100” value in data set [4] (plate-incorporation, +S9) was determined as 914 ± 113 rev/µg. Also, the “Mutagenicity call TA100” value in data set [4] (plate-incorporation, +S9) is on record as “(+) (Called mutagenic (+) based on showing reproducible, dose-related increases in rev/plate that reached or exceeded 2-fold relative to zero-dose controls)”. Also, in data set [4] (without S9 mix), the “Mutagenicity without S9 mix (direct-acting activity)” value was “required metabolic activation to be mutagenic”. The “Stable adducts/10^8 nucleotides ± S.E” value in data set [5] (TA100, 10 µg/ml) is reported as “Not detected”; in data set [5] (TA100, 20 µg/ml) it was “Not detected”. Also, in data set [6] (plate-incorporation, +S9), the “Mutagenic potency, Revertants/µg ± S.E., TA98” value was 143 rev/µg and 143 ± 19 rev/µg. The “Mutagenicity call TA98” value in data set [6] (plate-incorporation, +S9) was “(+) (Called mutagenic (+) based on showing reproducible, dose-related increases in rev/plate that reached or exceeded 2-fold relative to zero-dose controls)”. The “Fold increase in mutant frequency relative to DMSO-treated cells” value in data set [7] (10 µg/ml) stood at 17.6 fold; in data set [7] (20 µg/ml), 62.1 fold. Also, the figures for the “Rev/10^6 survivors” value in data set [7] (10 µg/ml) and in data set [7] (20 µg/ml) were 14.1 Rev/10^6 survivors and 49.1 Rev/10^6 survivors, respectively. The Percent survival was found to be 56% in data set [7] (10 µg/ml) and 37% in data set [7] (20 µg/ml).

`O[C@H]1C=Cc2ccc3c(sc4ccccc43)c2[C@@H]1O` [[2,1]BNT-1,2-diol]: in data set [1] (TA100), the “Mutagenicity in Salmonella TA100” value was “not mutagenic”.

Values taken from PMC2819846 (Mutation research, 2008).
